Experimental data published in patent US20220396577A1, “NOVEL SUBSTITUTED 1,3-8-TRIAZASPIRO[4,5] DECANE-2,4-DIONE COMPOUNDS AS INDOLEAMINE 2,3-DIOXYGENASE (IDO) AND/OR TRYPTOPHAN 2,3-DIOXYGENASE (TDO) INHIBITORS” (Merck Sharp & Dohme LLC, priority 2019, published 2022).

Assays:
TDO = molecular target: T1, TDO (Homo sapiens, UniProt P48775); experiment: TDO Cellular Assay (C), SW48 cells; type: cell-based; conditions: 48 hours, second value of cell
T1 construct: endogenous in cells; host or cells: SW48 cells
Procedure: Compounds were serially diluted in DMSO and acoustically dispensed (LabCyte Echo) into each well of a black 384-well cell culture plate (Greiner). SW48 cells were diluted to a density of 2×10^5 cells/ml in complete RPMI culture medium supplemented with […] L-tryptophan and […] SW48 cells were dispensed to each well of 384-well plates with a compound. Plates are gently shaken and then incubated for 48 hours at 37° C. in an incubator with 5% CO2. After incubation, 12 μl of the detection agent (0.5 M isonipecotate in DMSO) was added to each well and incubated at 37° C. overnight. The fluorescent signal was read on a Spectramax plate reader with excitation at 400 nm and emission at 510 nm. The percent inhibition was determined by normalization to wells containing no compound relative to wells receiving no cells.

CDK2 = CDK2 (Homo sapiens, UniProt P24941); experiment: Off-target kinase panel, ZLYTE: CDK2; type: biochemical; conditions: read-out: Estimated IC50 (uM) CDK2
Excerpt: (§1) The activity data was obtained in a panel of 265 and 264 for compounds 1-1 and CC-1, respectively, using the ZLYTE and ADAPTA assay methods indicated in the table below.
(§2) The ZLYTE biochemical assay employs a fluorescence-based, coupled-enzyme format and is based on the differential sensitivity of phosphorylated and non-phosphorylated peptides to proteolytic cleavage. The peptide substrate is labeled with two fluorophores—one at each end—that make up a Fluorescence Resonance Energy Transfer (FRET) pair.
(§3) In the primary reaction, the kinase transfers the gamma-phosphate of ATP to a single tyrosine, serine or threonine residue in a synthetic FRET-peptide. In the secondary reaction, a site-specific protease recognizes and cleaves non-phosphorylated FRET-peptides. Phosphorylation of FRET-peptides suppresses cleavage by the Development Reagent. […] A ratiometric method, which calculates the ratio (the Emission Ratio) of donor emission to acceptor emission after excitation of the donor fluorophore at 400 nm, is used to quantitate reaction progress, as shown in the equation below. […]
(§4) Both cleaved and uncleaved FRET-peptides contribute to the fluorescence signals and therefore to the Emission Ratio. The extent of phosphorylation of the FRET-peptide can be calculated from the Emission Ratio. […]
(§5) 10. Read on fluorescence plate reader and analyze the data.

CDK5/P35 = CDK5/P35 (Homo sapiens, UniProt Q00535); experiment: Off-target kinase panel, ZLYTE: CDK5/P35; type: biochemical; conditions: read-out: Estimated IC50 (uM) CDK5/P35
Excerpt: as §1, §2, §3, §4, §5

TYK2 = TYK2 (Homo sapiens, UniProt P29597); experiment: Off-target kinase panel, ZLYTE: TYK2; type: biochemical; conditions: read-out: Estimated IC50 (uM) TYK2
Excerpt: as §1, §2, §3, §4, §5

Chain of CDK5/P35 (Q00535 whole entry): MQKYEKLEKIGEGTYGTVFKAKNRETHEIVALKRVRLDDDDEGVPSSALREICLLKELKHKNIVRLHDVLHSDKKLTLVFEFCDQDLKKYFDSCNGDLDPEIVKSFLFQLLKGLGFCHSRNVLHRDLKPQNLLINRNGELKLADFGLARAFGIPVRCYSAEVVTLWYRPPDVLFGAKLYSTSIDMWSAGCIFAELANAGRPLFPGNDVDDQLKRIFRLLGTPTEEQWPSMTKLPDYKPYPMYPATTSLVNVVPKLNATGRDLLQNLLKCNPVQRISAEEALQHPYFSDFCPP
Chain of CDK5/P35 (Q15078 2-307 partner limits assumed): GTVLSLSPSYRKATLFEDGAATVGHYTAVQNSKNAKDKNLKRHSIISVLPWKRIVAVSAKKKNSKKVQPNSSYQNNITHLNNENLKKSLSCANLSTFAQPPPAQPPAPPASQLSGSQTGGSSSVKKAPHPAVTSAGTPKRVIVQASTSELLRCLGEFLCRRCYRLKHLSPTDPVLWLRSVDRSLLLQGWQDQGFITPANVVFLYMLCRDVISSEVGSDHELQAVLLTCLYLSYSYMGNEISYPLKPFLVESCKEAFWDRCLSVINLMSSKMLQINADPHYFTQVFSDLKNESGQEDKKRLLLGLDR
Chain of TYK2 (P29597 whole entry): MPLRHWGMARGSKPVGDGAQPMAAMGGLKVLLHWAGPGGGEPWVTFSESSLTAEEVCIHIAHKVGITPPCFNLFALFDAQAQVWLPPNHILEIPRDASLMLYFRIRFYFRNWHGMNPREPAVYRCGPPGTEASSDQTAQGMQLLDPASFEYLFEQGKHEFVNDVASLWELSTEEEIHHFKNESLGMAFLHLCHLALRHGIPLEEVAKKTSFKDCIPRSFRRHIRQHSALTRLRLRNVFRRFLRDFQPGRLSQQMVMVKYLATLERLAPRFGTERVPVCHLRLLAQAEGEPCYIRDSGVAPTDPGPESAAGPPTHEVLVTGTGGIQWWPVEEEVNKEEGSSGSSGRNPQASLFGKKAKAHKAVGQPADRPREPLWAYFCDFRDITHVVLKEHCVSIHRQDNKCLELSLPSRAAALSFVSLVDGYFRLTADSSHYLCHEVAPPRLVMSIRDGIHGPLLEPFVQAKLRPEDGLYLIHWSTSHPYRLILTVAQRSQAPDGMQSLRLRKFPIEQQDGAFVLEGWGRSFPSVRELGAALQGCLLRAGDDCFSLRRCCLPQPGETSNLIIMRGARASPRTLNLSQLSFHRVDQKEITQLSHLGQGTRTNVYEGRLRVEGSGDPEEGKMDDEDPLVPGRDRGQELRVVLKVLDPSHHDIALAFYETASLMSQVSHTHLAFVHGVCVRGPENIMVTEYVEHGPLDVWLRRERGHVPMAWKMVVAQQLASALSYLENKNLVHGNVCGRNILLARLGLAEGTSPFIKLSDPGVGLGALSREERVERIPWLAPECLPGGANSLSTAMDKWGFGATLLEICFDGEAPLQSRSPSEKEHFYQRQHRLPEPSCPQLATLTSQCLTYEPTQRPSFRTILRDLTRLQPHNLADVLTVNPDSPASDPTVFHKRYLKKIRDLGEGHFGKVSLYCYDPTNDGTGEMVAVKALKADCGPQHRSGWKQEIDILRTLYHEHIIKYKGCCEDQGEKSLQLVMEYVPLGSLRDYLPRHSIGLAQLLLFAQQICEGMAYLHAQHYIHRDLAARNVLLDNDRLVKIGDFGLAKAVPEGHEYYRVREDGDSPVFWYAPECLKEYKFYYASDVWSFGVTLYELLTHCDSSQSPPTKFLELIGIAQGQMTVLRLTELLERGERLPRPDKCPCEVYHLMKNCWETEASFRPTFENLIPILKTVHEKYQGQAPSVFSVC
T1 sequence (P48775 whole entry): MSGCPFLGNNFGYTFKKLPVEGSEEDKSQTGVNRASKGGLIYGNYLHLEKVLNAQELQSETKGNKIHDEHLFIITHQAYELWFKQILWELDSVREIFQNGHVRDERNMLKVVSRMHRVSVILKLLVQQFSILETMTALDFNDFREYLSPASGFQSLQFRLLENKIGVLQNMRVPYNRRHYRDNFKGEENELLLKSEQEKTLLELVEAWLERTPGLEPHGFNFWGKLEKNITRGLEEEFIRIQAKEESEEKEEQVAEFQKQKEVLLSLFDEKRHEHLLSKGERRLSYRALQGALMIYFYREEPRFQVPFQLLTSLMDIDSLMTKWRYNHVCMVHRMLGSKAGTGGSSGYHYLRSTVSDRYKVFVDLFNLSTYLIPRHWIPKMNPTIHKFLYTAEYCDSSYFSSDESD

Row | IC50 (TDO) | IC50 (CDK2) | IC50 (CDK5/P35) | IC50 (TYK2) | SMILES
1 | 247 nM | > 2 µM | > 2 µM | > 2 µM | C[C@@H]1CN(c2cc(Br)cc3[nH]ncc23)CC[C@]12NC(=O)NC2=O (single isomer, unassigned) [Compound 1-1]
2 | 206 nM | 1.5 µM | 1.6 µM | 2 µM | O=C1NC(=O)C2(CCN(c3cc(Cl)cc4[nH]ncc34)CC2)N1 [CC-1]
